Structures can show the parent of a compound that is named as a salt.
Columns and labels:
[1] = system: bethanechol-contracted rabbit bladder strips; test: relaxation of bethanechol-contracted rabbit urinary bladder strip (organ bath); format: cell-based; conditions: 250 μM bethanechol; for inhibition at 100 µM / inhibition at 10 µM / inhibition at 1 µM / inhibition at 0.1 µM / inhibition at 0.01 µM: Oryctolagus cuniculus, maximal relaxation = pre-bethanechol tone, read-out: % of maximum relaxation
Description: The pharmacological actions of two anti-spasmodic compounds were studied in a rabbit urinary bladder strip preparation. In general, longitudinal strips were prepared from the base of freshly isolated rabbit bladders and were then suspended under near-physiological conditions in tissue baths. The strips were attached to force transducers and both contractile and relaxant activity was measured. To measure the relaxant effects on the anti-spasmodic compounds on previously-contracted bladder strips, the strips were initially exposed to the muscarinic receptor agonist bethanechol and allowed to reach a steady level of contractile activity for 20 minutes. At this point cumulative dose-responses to the various compounds were recorded. The rabbit abdomens were opened through a vertical midline incision. The bladder and urethra were dissected free of all surrounding tissues, removed and placed in aerated (95% O2 :5% CO2) Kreb's-bicarbonate buffer (pH: 7.4) of the following composition ([…]): KCl 4.6, CaCl2.2H2 O 2.5, KH2 PO4 1.2, MgSO4.7H2 O 1.2, NaCl 118.2, NaHCO3 24.8, and glucose 10.0. Longitudinal muscle strips were prepared from the bladder base (approximately 6 mm×4 mm) and suspended in an organ bath containing Kreb's buffer (37° C.) which was continuously aerated with O2 :CO2 (95%:5%). Tissues were allowed to equilibrate to a tension of 2 gm for sixty minutes during which time buffer was replaced at 20 minute intervals. The contractile and relaxant responses of the muscle strips were measured isometrically with a Statham UC3 force-displacement transducer and recorded on an Electronics for Medicine DR8 oscillographic recorder. Bethanechol was employed as the representative cholinergic agonist and, following equilibration, was added to the baths for a final concentration of 250 μM. The tissues were allowed 20 minute to achieve a maintained level of contraction in response to bethanechol and, at this point, cumulative dose-response measurements for two anti-spasmodic compounds were started at concentrations ranging from 10^-8 M to 10^-4 M. Solutions were added in volumes up to 100 μl and were prepared fresh each day by dissolving them in distilled: deionzed water. Responses were measured 5 minutes following any particular cumulative addition and were expressed as a percentage of maximal relaxation (e.g. maximal relaxation is the baseline or pre-bethanechol level of muscle tone).
Dose responses, measured from the standard bethanechol-contracted rabbit bladder strips, at various concentrations of 2-ethyl-butyrol-thio-S-(2-diethylaminoethyl)-ester [CH3 CH2)2 --CH--CO--S--(CH2)2 --N--(CH2 CH3)2.HCl], are presented in Table I:
Dose responses, measured from the standard bethanechol-contracted rabbit bladder strips, at various concentrations of 2-propyl-pentanoyl-thiol-S-(2-diethylaminoethyl)-ester.HCl [(CH3 CH2 CH2)2 --CH--CO--S--(CH2)2 --N--(CH2 CH3)2.HCl] are presented in Table II: […]

[2] = system: muscarinic receptors (rabbit lung tissue); format: binding, rabbit (New Zealand White); conditions: 0.1 nM [3H]QNB, 37° C., 60 min, pH 7.4
[3] = system: smooth muscle (gastrointestinal tract, biliary tract, ureter and uterus); conditions: cited from earlier work
[4] = system: salivary and sweat glands, GI glands, the eye or the cardiovascular system; conditions: cited from earlier work

CCCC(CCC)C(=O)SCCN(CC)CC [2-propyl-pentanoyl-thio-S-(2-diethylaminoethyl)-ester.HCl]
Decrease in force of contraction of rabbit bladder strip ([1]; 10^-4 moles/liter): 0.81 gm
Increase in length of rabbit bladder strip ([1]; 10^-4 moles/liter): 2.9 cm
Decrease in force of contraction of rabbit bladder strip ([1]; 10^-5 moles/liter): 0.31 gm
Increase in length of rabbit bladder strip ([1]; 10^-5 moles/liter): 1.1 cm
Decrease in force of contraction of rabbit bladder strip ([1]; 10^-6 moles/liter): 0.0 gm
Increase in length of rabbit bladder strip ([1]; 10^-6 moles/liter): 0.0 cm
Decrease in force of contraction of rabbit bladder strip ([1]; 10^-7 moles/liter): 0.0 gm
Increase in length of rabbit bladder strip ([1]; 10^-7 moles/liter): 0.0 cm
Decrease in force of contraction of rabbit bladder strip ([1]; 10^-8 moles/liter): 0.0 gm
Increase in length of rabbit bladder strip ([1]; 10^-8 moles/liter): 0.0 cm
inhibition at 100 µM ([1]; 10^-4 moles/liter): 100%
inhibition at 10 µM ([1]; 10^-5 moles/liter): 100%
inhibition at 1 µM ([1]; 10^-6 moles/liter): 0%
inhibition at 0.1 µM ([1]; 10^-7 moles/liter): 0%
inhibition at 0.01 µM ([1]; 10^-8 moles/liter): 0%
% inhibition of 3H[QNB] binding (at a concentration of 1.0 × 10^-5 M) [2]: 95%

CCN(CC)CCSC(=O)C(c1ccccc1)c1ccccc1 [Thiphenamil hydrochloride]
decrease of spasm [3]: decrease spasm of the gastrointestinal tract, biliary tract, ureter and uterus
characteristic atropinic side effects [4]: without producing characteristic atropinic side effects on salivary and sweat glands, GI glands, the eye or the cardiovascular system

CCC(CC)C(=O)SCCN(CC)CC [2-ethyl-butyryl-thio-S-(2-diethylaminoethyl)ester.HCl]
Decrease in force of contraction of rabbit bladder strip ([1]; 10^-4 moles/liter): 0.54 gm
Increase in length of rabbit bladder strip ([1]; 10^-4 moles/liter): 1.3 cm
Decrease in force of contraction of rabbit bladder strip ([1]; 10^-5 moles/liter): 0.29 gm
Increase in length of rabbit bladder strip ([1]; 10^-5 moles/liter): 0.7 cm
Decrease in force of contraction of rabbit bladder strip ([1]; 10^-6 moles/liter): 0.25 gm
Increase in length of rabbit bladder strip ([1]; 10^-6 moles/liter): 0.6 cm
Decrease in force of contraction of rabbit bladder strip ([1]; 10^-7 moles/liter): 0.17 gm
Increase in length of rabbit bladder strip ([1]; 10^-7 moles/liter): 0.4 cm
Decrease in force of contraction of rabbit bladder strip ([1]; 10^-8 moles/liter): 0.13 gm
Increase in length of rabbit bladder strip ([1]; 10^-8 moles/liter): 0.3 cm
inhibition at 100 µM ([1]; 10^-4 moles/liter): 37%
inhibition at 10 µM ([1]; 10^-5 moles/liter): 20%
inhibition at 1 µM ([1]; 10^-6 moles/liter): 17.1%
inhibition at 0.1 µM ([1]; 10^-7 moles/liter): 11.4%
inhibition at 0.01 µM ([1]; 10^-8 moles/liter): 8.6%
% inhibition of 3H[QNB] binding (at a concentration of 1.0 × 10^-5 M) [2]: 64%
